Like-named read-outs stand apart in the source and are kept apart here. Where a SMILES comes first, the peptide text is derived from it. Where no end group is shown, it is not given here. [ ]: non-standard residue; d: D form. The star is where a group is joined. Palmitoyl = CCCCCCCCCCCCCCCC(=O)*; Aib = CC(C)(N)C(=O)O
Experiments:
[1] = Histimine (% vs. 48/40)
[2] = target: T1, APJ receptor (Homo sapiens, UniProt P35414); test: HTRF cAMP assay, inhibition of NKH477 stimulated cAMP in Human TRex cells expressing APJ upon doxycycline induction (APJ-hTREX); assay type: cell-based; details: for Ranking: class combining EC50 and % histamine; for percent intrinsic activity at 0.3 µM: read-out: % IA (@ 300 nM)
T1 construct: expressed in transfected cells; host or cells: Human TRex cells (doxycycline-inducible)
T1 sequence (P35414 1-380): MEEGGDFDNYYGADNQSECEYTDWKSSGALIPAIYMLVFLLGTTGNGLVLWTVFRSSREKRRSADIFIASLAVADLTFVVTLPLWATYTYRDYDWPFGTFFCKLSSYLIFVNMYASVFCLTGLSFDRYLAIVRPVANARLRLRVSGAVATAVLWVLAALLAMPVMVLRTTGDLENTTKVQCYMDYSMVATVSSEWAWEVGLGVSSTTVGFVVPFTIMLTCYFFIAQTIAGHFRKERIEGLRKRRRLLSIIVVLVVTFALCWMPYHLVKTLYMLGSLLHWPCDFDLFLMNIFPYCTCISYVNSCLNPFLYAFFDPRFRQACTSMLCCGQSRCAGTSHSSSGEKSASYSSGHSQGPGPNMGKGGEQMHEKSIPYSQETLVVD
Source text: HTRF (homogeneous time resolved fluorescence) is a technology developed by Cisbio Bioassays based on TR-FRET (time-resolved fluorescence resonance energy transfer). Cisbio Bioassays has developed a wide selection of HTRF-based assays compatible with whole cells, thereby enabling functional assays to run under more physiological conditions. The IP-One assays are competitive immunoassays using cryptate-labeled anti-IP1 monoclonal antibody and d2-labeled IP1. IP1 is a relatively stable downstream metabolite of IP3, and accumulates in cells following Gq receptor activation.
cAMP kits based on a competitive immunoassay using cryptate-labeled anti-cAMP antibody and d2-labeled cAMP were used to assay the effects of APJ compounds of the present invention. […] Cells are treated with […] doxycycline and seeded in all white 96 well plates @ 40 k/well overnight.

[3] = inhibition of NKH477 stimulated cAMP, APJ-hTREX cells, read-out: APJ-hTREX EC50

CCCCCCCCCCCCCCCC(=O)N[C@H](C(=O)N[C@H](C(=O)N[C@@H](Cc1ccccc1)C(=O)N[C@@H](CCCNC(=N)N)C(=O)N[C@@H](CO)C(=O)N[C@@H](CO)C(=O)N[C@@H](CCC(=O)O)C(=O)N[C@H](CCCCN)C(=O)N[C@@H](Cc1ccccc1)C(=O)N[C@@H](CCCNC(=N)N)C(=O)N[C@@H](CO)C(=O)N[C@@H](C)C(=O)N[C@@H](CC(=O)O)C(=O)N[C@H](C(=O)N[C@@H](Cc1ccccc1)C(=O)N[C@H](C(N)=O)[C@@H](C)CC)[C@@H](C)CC)C(C)C)[C@@H](C)O [Compound 3] (Palmitoyl-TVFRSSE[dK]FRSADIFI-NH2; C-terminus assumed)
Histimine (% vs. 48/40) [1]: 29%
EC50 [2]: 243 nM
Ranking [2]: **** (EC50 101-500 nM and % histamine<35%)
percent intrinsic activity at 0.3 µM [2]: 71%

CCCCCCCCCCCCCCCC(=O)N[C@H](C(=O)N[C@H](C(=O)N[C@@H](Cc1ccccc1)C(=O)N[C@@H](CCCNC(=N)N)C(=O)N[C@@H](CO)C(=O)N[C@@H](CO)C(=O)N[C@@H](CCC(=O)O)C(=O)N[C@H](CCCCN)C(=O)N[C@@H](CCCNC(=N)N)C(=O)N[C@@H](CCCNC(=N)N)C(=O)N[C@@H](CO)C(=O)N[C@@H](C)C(=O)N[C@@H](Cc1ccccc1)C(=O)N[C@H](C(=O)N[C@@H](Cc1ccccc1)C(=O)N[C@H](C(N)=O)[C@@H](C)CC)[C@@H](C)CC)C(C)C)[C@@H](C)O [Compound 4] (Palmitoyl-TVFRSSE[dK]RRSAFIFI-NH2)
Histimine (% vs. 48/40) [1]: 118%
percent intrinsic activity at 0.3 µM [2]: 65%

CCCCCCCCCCCCCCCC(=O)N[C@H](C(=O)N[C@H](C(=O)N[C@@H](Cc1ccccc1)C(=O)N[C@@H](CCCNC(=N)N)C(=O)N[C@@H](CO)C(=O)N[C@@H](CO)C(=O)N[C@@H](CCC(=O)O)C(=O)N[C@H](CCCCN)C(=O)N[C@@H](CCCNC(=N)N)C(=O)N[C@@H](CCCNC(=N)N)C(=O)N[C@@H](CO)C(=O)N[C@@H](C)C(=O)N[C@@H](CC(=O)O)C(=O)N[C@H](C(=O)N[C@@H](Cc1ccccc1)C(=O)N[C@@H](Cc1ccccc1)C(N)=O)[C@@H](C)CC)C(C)C)[C@@H](C)O [Compound 6] (Palmitoyl-TVFRSSE[dK]RRSADIFF-NH2; C-terminus assumed)
Histimine (% vs. 48/40) [1]: 70%
Ranking [2]: *** (EC50<100 nM and % histamine>35%)
EC50 [2, 3]: 49.2 nM
percent intrinsic activity at 0.3 µM [2]: 76%

CCCCCCCCCCCCCCCC(=O)N[C@H](C(=O)N[C@H](C(=O)N[C@@H](Cc1ccccc1)C(=O)N[C@@H](CCCNC(=N)N)C(=O)N[C@@H](CO)C(=O)N[C@@H](Cc1c[nH]cn1)C(=O)N[C@@H](CCC(=O)O)C(=O)N[C@H](CCCCN)C(=O)N[C@@H](CCCNC(=N)N)C(=O)N[C@@H](CCCNC(=N)N)C(=O)N[C@@H](CO)C(=O)N[C@@H](C)C(=O)N[C@@H](CC(=O)O)C(=O)N[C@H](C(=O)N[C@@H](Cc1ccccc1)C(=O)N[C@H](C(N)=O)[C@@H](C)CC)[C@@H](C)CC)C(C)C)[C@@H](C)O [Compound 11] (Palmitoyl-TVFRSHE[dK]RRSADIFI-NH2; C-terminus assumed)
Histimine (% vs. 48/40) [1]: 38%
EC50 [2]: 65.1 nM
Ranking [2]: *** (EC50<100 nM and % histamine>35%)
percent intrinsic activity at 0.3 µM [2]: 68%

CCCCCCCCCCCCCCCC(=O)N[C@H](C(=O)N[C@H](C(=O)N[C@@H](Cc1ccccc1)C(=O)N[C@@H](CCCNC(=N)N)C(=O)N[C@@H](CO)C(=O)N[C@@H](CO)C(=O)N[C@@H](CCC(=O)O)C(=O)N[C@H](CCCCN)C(=O)N[C@@H](CCCNC(=N)N)C(=O)N[C@@H](Cc1c[nH]cn1)C(=O)N[C@@H](CO)C(=O)N[C@@H](C)C(=O)N[C@@H](CC(=O)O)C(=O)N[C@H](C(=O)N[C@@H](Cc1ccccc1)C(=O)N[C@H](C(N)=O)[C@@H](C)CC)[C@@H](C)CC)C(C)C)[C@@H](C)O [Compound 14] (Palmitoyl-TVFRSSE[dK]RHSADIFI-NH2; C-terminus assumed)
Histimine (% vs. 48/40) [1]: 20%
Ranking [2]: **** (EC50 101-500 nM and % histamine<35%)
EC50 [2, 3]: 253 nM
percent intrinsic activity at 0.3 µM [2]: 74%

CCCCCCCCCCCCCCCC(=O)N[C@H](C(=O)N[C@H](C(=O)N[C@@H](Cc1ccccc1)C(=O)N[C@@H](CCCNC(=N)N)C(=O)N[C@@H](CO)C(=O)N[C@@H](CO)C(=O)N[C@@H](CCC(=O)O)C(=O)N[C@H](CCCCN)C(=O)N[C@@H](CCCNC(=N)N)C(=O)N[C@@H](CCCNC(=N)N)C(=O)N[C@@H](CO)C(=O)N[C@@H](Cc1c[nH]cn1)C(=O)N[C@@H](CC(=O)O)C(=O)N[C@H](C(=O)N[C@@H](Cc1ccccc1)C(=O)N[C@H](C(N)=O)[C@@H](C)CC)[C@@H](C)CC)C(C)C)[C@@H](C)O [Compound 15] (Palmitoyl-TVFRSSE[dK]RRSHDIFI-NH2)
Histimine (% vs. 48/40) [1]: 103%
percent intrinsic activity at 0.3 µM [2]: 77%

CCCCCCCCCCCCCCCC(=O)N[C@H](C(=O)N[C@H](C(=O)N[C@@H](Cc1ccccc1)C(=O)N[C@@H](CCCNC(=N)N)C(=O)N1CCC[C@H]1C(=O)N[C@@H](CO)C(=O)N[C@@H](CCC(=O)O)C(=O)N[C@H](CCCCN)C(=O)N[C@@H](CCCNC(=N)N)C(=O)N[C@@H](CCCNC(=N)N)C(=O)N[C@@H](CO)C(=O)N[C@@H](C)C(=O)N[C@@H](CC(=O)O)C(=O)N[C@H](C(=O)N[C@@H](Cc1ccccc1)C(=O)N[C@H](C(N)=O)[C@@H](C)CC)[C@@H](C)CC)C(C)C)[C@@H](C)O [Compound 45] (Palmitoyl-TVFRPSE[dK]RRSADIFI-NH2)
percent intrinsic activity at 0.3 µM [2]: 70%

CCCCCCCCCCCCCCCC(=O)N[C@H](C(=O)N[C@H](C(=O)N[C@@H](Cc1ccccc1)C(=O)N[C@@H](CCCNC(=N)N)C(=O)N[C@@H](CO)C(=O)N1CCC[C@H]1C(=O)N[C@@H](CCC(=O)O)C(=O)N[C@H](CCCCN)C(=O)N[C@@H](CCCNC(=N)N)C(=O)N[C@@H](CCCNC(=N)N)C(=O)N[C@@H](CO)C(=O)N[C@@H](C)C(=O)N[C@@H](CC(=O)O)C(=O)N[C@H](C(=O)N[C@@H](Cc1ccccc1)C(=O)N[C@H](C(N)=O)[C@@H](C)CC)[C@@H](C)CC)C(C)C)[C@@H](C)O [Compound 46] (Palmitoyl-TVFRSPE[dK]RRSADIFI-NH2)
percent intrinsic activity at 0.3 µM [2]: 77%

CCCCCCCCCCCCCCCC(=O)N[C@H](C(=O)N[C@H](C(=O)N[C@@H](Cc1ccccc1)C(=O)N[C@@H](CCCNC(=N)N)C(=O)N[C@@H](CO)C(=O)NC(C)(C)C(=O)N[C@@H](CCC(=O)O)C(=O)N[C@H](CCCCN)C(=O)N[C@@H](CCCNC(=N)N)C(=O)N[C@@H](CCCNC(=N)N)C(=O)N[C@@H](CO)C(=O)N[C@@H](C)C(=O)N[C@@H](CC(=O)O)C(=O)N[C@H](C(=O)N[C@@H](Cc1ccccc1)C(=O)N[C@H](C(N)=O)[C@@H](C)CC)[C@@H](C)CC)C(C)C)[C@@H](C)O [Compound 59] (Palmitoyl-TVFRS[Aib]E[dK]RRSADIFI-NH2)
percent intrinsic activity at 0.3 µM [2]: 66%

CCCCCCCCCCCCCCCC(=O)N[C@H](C(=O)N[C@H](C(=O)N[C@@H](Cc1ccccc1)C(=O)N[C@@H](CCCNC(=N)N)C(=O)N[C@@H](CO)C(=O)NCC(=O)N[C@@H](CCC(=O)O)C(=O)N[C@H](CCCCN)C(=O)N[C@@H](CCCNC(=N)N)C(=O)N[C@@H](CCCNC(=N)N)C(=O)N[C@@H](CO)C(=O)N[C@@H](C)C(=O)N[C@@H](CC(=O)O)C(=O)N[C@H](C(=O)N[C@@H](Cc1ccccc1)C(=O)N[C@H](C(N)=O)[C@@H](C)CC)[C@@H](C)CC)C(C)C)[C@@H](C)O [Compound 73] (Palmitoyl-TVFRSGE[dK]RRSADIFI-NH2)
percent intrinsic activity at 0.3 µM [2]: 67%

CCCCCCCCCCCCCCCC(=O)N[C@H](C(=O)N[C@H](C(=O)N[C@@H](Cc1ccccc1)C(=O)N[C@@H](CCCNC(=N)N)C(=O)N[C@@H](CO)C(=O)N[C@@H](CO)C(=O)NCC(=O)N[C@H](CCCCN)C(=O)N[C@@H](CCCNC(=N)N)C(=O)N[C@@H](CCCNC(=N)N)C(=O)N[C@@H](CO)C(=O)N[C@@H](C)C(=O)N[C@@H](CC(=O)O)C(=O)N[C@H](C(=O)N[C@@H](Cc1ccccc1)C(=O)N[C@H](C(N)=O)[C@@H](C)CC)[C@@H](C)CC)C(C)C)[C@@H](C)O [Compound 74] (Palmitoyl-TVFRSSG[dK]RRSADIFI-NH2)
percent intrinsic activity at 0.3 µM [2]: 61%

CCCCCCCCCCCCCCCC(=O)N[C@H](C(=O)N[C@H](C(=O)N[C@@H](Cc1ccccc1)C(=O)N[C@@H](CCCNC(=N)N)C(=O)N[C@@H](CO)C(=O)N[C@@H](CO)C(=O)N[C@@H](CCC(=O)O)C(=O)N[C@H](CCCCN)C(=O)NCC(=O)N[C@@H](CCCNC(=N)N)C(=O)N[C@@H](CO)C(=O)N[C@@H](C)C(=O)N[C@@H](CC(=O)O)C(=O)N[C@H](C(=O)N[C@@H](Cc1ccccc1)C(=O)N[C@H](C(N)=O)[C@@H](C)CC)[C@@H](C)CC)C(C)C)[C@@H](C)O [Compound 75] (Palmitoyl-TVFRSSE[dK]GRSADIFI-NH2)
percent intrinsic activity at 0.3 µM [2]: 57%

TVFRSSEkPRSADIFI (TVFRSSE[dK]PRSADIFI; also: Pal-C(O)- tether, place not given here) [Compound 49]
% IA (@ 300 nM) [2]: 49%

TVFRSSEkRRSADFFI (TVFRSSE[dK]RRSADFFI; also: Pal-C(O)- tether, place not given here) [Compound 5]
% IA (@ 300 nM) [2]: 81%
